Assay results reported in publication PMC7673538 (PLoS Biology, 2020).
Several values for one entry are separate records, joined by “and”; a condition that tells them apart may be missing. Identical values can stand only once. Like-named read-outs stand apart in the source and are kept apart here.

Experiments:
EV-A71 = experiment: microbe, parasite or virus in culture; type: cell-based, enterovirus A71; details: Enterovirus A
PV-1 = experiment: microbe, parasite or virus in culture; type: cell-based, poliovirus 1; details: Enterovirus C
CV-A24 = experiment: microbe, parasite or virus in culture; type: cell-based, coxsackievirus A24
CV-A24v = experiment: microbe, parasite or virus in culture; type: cell-based, coxsackievirus A24v
EV-D68 = experiment: microbe, parasite or virus in culture; type: cell-based, enterovirus D68; details: for EC50: Enterovirus D
HRV-A2 = experiment: microbe, parasite or virus in culture; type: cell-based, human rhinovirus; details: Human rhinovirus sp., HRVA2, HeLa R19, read-out: EC50 HRV-A2
HRV-B14 = experiment: microbe, parasite or virus in culture; type: cell-based, human rhinovirus; details: Human rhinovirus sp.
[1] = test system: representative EVs and RVs; type: cell-based
human SERT = target: T1, human SERT (Homo sapiens, UniProt P31645); type: cell-based; details: for SERT, Mean (Figure 8B): Control = 100.00; for SERT, Mean as % (Figure 8B): Control = 100%
T1 construct: expressed in transfected cells; host or cells: HEK293 (gift of Dr. Hoener, F. Hoffmann-La Roche)

human DAT = target: T2, human DAT (Homo sapiens, UniProt Q01959); type: cell-based; details: for DAT, Mean (Figure 8B): Control = 100; for DAT, Mean as % (Figure 8B): Control = 100%
T2 construct: expressed in transfected cells; host or cells: HEK293 (gift of Dr. Hoener, F. Hoffmann-La Roche)

human NET = target: T3, human NET (Homo sapiens, UniProt P23975); type: cell-based; details: for NET, Mean (Figure 8B): Control = 100; for NET, Mean as % (Figure 8B): Control = 100%
T3 construct: expressed in transfected cells; host or cells: HEK293 (gift of Dr. Hoener, F. Hoffmann-La Roche)

in vitro [2] = details: human
in vitro [3] = details: monkey

T2 sequence (Q01959 whole entry): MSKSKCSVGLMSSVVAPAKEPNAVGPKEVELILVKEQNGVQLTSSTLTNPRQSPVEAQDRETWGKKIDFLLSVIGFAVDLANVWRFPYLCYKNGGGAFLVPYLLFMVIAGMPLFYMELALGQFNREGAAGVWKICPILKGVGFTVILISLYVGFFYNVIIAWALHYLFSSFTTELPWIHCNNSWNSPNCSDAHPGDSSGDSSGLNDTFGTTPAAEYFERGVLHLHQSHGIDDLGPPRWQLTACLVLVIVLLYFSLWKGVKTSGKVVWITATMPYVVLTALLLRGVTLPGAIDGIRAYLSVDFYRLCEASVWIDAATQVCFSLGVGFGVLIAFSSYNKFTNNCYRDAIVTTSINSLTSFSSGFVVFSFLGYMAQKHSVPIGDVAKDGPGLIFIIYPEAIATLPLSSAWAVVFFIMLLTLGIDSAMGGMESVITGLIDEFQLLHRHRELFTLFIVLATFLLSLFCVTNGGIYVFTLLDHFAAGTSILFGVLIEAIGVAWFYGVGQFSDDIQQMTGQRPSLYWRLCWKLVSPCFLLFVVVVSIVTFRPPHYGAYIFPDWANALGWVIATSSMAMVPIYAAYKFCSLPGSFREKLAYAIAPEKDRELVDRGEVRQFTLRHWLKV
T3 sequence (P23975 whole entry): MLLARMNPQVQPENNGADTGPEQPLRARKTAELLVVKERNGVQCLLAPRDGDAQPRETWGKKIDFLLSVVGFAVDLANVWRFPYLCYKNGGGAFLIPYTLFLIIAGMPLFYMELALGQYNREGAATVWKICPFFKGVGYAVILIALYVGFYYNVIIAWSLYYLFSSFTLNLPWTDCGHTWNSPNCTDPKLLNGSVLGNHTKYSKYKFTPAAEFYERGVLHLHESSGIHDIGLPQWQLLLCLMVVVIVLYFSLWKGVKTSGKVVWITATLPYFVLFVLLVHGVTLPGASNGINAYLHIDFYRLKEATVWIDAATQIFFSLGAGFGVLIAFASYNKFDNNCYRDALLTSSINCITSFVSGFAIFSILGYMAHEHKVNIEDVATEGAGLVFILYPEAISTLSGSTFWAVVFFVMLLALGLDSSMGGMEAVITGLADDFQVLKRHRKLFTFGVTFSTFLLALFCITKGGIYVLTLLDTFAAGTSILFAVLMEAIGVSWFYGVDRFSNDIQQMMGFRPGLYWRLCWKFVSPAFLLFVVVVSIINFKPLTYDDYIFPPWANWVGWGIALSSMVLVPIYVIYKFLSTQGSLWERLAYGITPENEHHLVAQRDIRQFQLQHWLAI
T1 sequence (P31645 whole entry): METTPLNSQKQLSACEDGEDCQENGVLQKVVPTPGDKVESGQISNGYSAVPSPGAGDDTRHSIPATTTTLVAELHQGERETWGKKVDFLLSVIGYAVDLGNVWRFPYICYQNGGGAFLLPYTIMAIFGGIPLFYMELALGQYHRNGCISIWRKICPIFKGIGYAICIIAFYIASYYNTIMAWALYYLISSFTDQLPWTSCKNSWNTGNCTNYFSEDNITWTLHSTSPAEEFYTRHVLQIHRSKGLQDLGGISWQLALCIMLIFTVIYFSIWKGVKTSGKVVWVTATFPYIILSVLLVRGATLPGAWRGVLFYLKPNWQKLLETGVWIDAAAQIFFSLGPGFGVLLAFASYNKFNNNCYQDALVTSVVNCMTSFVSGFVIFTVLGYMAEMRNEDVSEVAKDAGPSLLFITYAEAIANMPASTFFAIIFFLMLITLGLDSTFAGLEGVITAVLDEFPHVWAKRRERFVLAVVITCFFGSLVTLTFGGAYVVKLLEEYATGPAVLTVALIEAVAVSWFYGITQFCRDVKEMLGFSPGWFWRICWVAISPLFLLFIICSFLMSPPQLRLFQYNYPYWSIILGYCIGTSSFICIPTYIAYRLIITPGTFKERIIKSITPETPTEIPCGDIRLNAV

Which EC50 (EV-A71; EVA71, HeLa R19, read-out: EC50 Average) does the source give for `O=C(c1ccco1)N(Cc1ccc(F)cc1)c1ccccc1` [Compound 19b, N-(4-Fluorobenzyl)-N-phenylfuran-2-carboxamide] here?
Its EC50 is 2.02 µM.

What about the EC50 (EV-A71; EVA71, HeLa R19, read-out: EC50 EV-A71) of the same molecule?
Its EC50 is 0.89 ± 0.09 µM.

What about the EC50 (EV-A71; EVA71, HeLa R19, read-out: EC50 EV-A71 strain BrCr) of the same molecule?
Its EC50 is 1.12 ± 0.15 µM.

What about the EC50 (EV-A71; EVA71, HeLa R19, read-out: EC50 EV-A71 strain TW/2728/04) of the same molecule?
The EC50 was 2.1 ± 0.08 µM.

What about the EC50 (EV-A71; EVA71, HeLa R19, read-out: EC50 EV-A71 strain TW/2945/98) of the same molecule?
Its EC50 is 2.02 ± 0.15 µM.

What about the EC50 (EV-A71; EVA71, HeLa R19, read-out: EC50 EV-A71 strain TW/70811/08) of the same molecule?
The EC50 was 0.92 ± 0.17 µM.

And the EC50 (EV-A71; EVA71, HeLa R19, read-out: EC50 EV-A71 strain TW/72232/04)?
The EC50 was 3.83 ± 0.25 µM.

What about the EC50 (EV-A71; EVA71, HeLa R19, read-out: EC50 EV-A71 strain TW/96016/08) of the same molecule?
The EC50 was 1.89 ± 0.02 µM.

What about the EC50 (EV-A71; EVA71 / genotype 2c, HeLa R19, read-out: EC50 EV-A71 WT) of the same molecule?
The EC50 was 0.82 ± 0.12 µM.

What about the EC50 (PV-1; HeLa R19, read-out: EC50 Exp1) of the same molecule?
The EC50 was 8.5 µM.

What about the EC50 (PV-1; HeLa R19, read-out: EC50 Exp2) of the same molecule?
Its EC50 is 9.65 µM.

And the EC50 (PV-1; HeLa R19, read-out: EC50 PV-1)?
The EC50 was 9.08 ± 0.54 µM.

And the EC50 (CV-A24; Enterovirus C, CVA24, HeLa R19, read-out: EC50 CV-A24)?
Its EC50 is 6.39 ± 0.74 µM.

And the EC50 (CV-A24; Enterovirus C, CVA24, HeLa R19, read-out: EC50 CV-A24 strain Joseph)?
Its EC50 is 4.99 ± 0.61 µM.

And the EC50 (CV-A24; Enterovirus C, CVA24, HeLa R19, read-out: EC50 Exp1)?
Its EC50 is 5.65 µM.

What about the EC50 (CV-A24; Enterovirus C, CVA24, HeLa R19, read-out: EC50 Exp2) of the same molecule?
Its EC50 is 7.12 µM.

What about the EC50 (CV-A24; read-out: EC50 Exp1) of the same molecule?
The EC50 was 4.38 µM.

And the EC50 (CV-A24; read-out: EC50 Exp2)?
Its EC50 is 5.6 µM.

And the EC50 (CV-A24v; Coxsackievirus, HeLa R19, read-out: EC50 CV-A24v strain 110386)?
Its EC50 is 2.53 ± 0.45 µM.

And the EC50 (CV-A24v; Coxsackievirus, HeLa R19, read-out: EC50 CV-A24v strain 110389)?
Its EC50 is 5.65 ± 0.23 µM.

And the EC50 (CV-A24v; Coxsackievirus, HeLa R19, read-out: EC50 CV-A24v strain 110390)?
Its EC50 is 4.16 ± 0.17 µM.

And the EC50 (CV-A24v; Coxsackievirus, HeLa R19, read-out: EC50 CV-A24v strain 110392)?
The EC50 was 4.35 ± 0.18 µM.

And the EC50 (CV-A24v; Coxsackievirus, HeLa R19, read-out: EC50 Exp2)?
Its EC50 is 2.98 µM.

What about the EC50 (CV-A24v; read-out: EC50 Exp2) of the same molecule?
The EC50 was 5.42 µM and 4.32 µM and 4.53 µM.

And the “cross-resistance of 19d-resistant EV-D68 virus pools (in words)” value (EV-D68)?
Its value is “cross-resistance”.

And the EC50 (EV-D68; EVD68, HeLa R19, […], read-out: EC50 Exp1)?
Its EC50 is 1.87 µM.

And the EC50 (EV-D68; EVD68, HeLa R19, read-out: EC50 Average)?
The EC50 was 0.83 µM.

What about the EC50 (EV-D68; EVD68, HeLa R19, read-out: EC50 EV-D68) of the same molecule?
Its EC50 is 0.5 ± 0.26 µM.

And the EC50 (EV-D68; EVD68, HeLa R19, read-out: EC50 EV-D68 strain 4310900947)?
The EC50 was 1.85 ± 0.18 µM.

What about the EC50 (EV-D68; EVD68, HeLa R19, read-out: EC50 EV-D68 strain 4310901348) of the same molecule?
Its EC50 is 1.71 ± 0.68 µM.

And the EC50 (EV-D68; EVD68, HeLa R19, read-out: EC50 EV-D68 strain 4310902042)?
The EC50 was 0.91 ± 0.92 µM.

And the EC50 (EV-D68; EVD68, HeLa R19, read-out: EC50 EV-D68 strain 4310902284)?
Its EC50 is 1.29 ± 0.21 µM.

And the EC50 (EV-D68; EVD68, HeLa R19, read-out: EC50 EV-D68 strain 4311000742)?
The EC50 was 1.31 ± 0.9 µM.

What about the EC50 (EV-D68; EVD68, HeLa R19, read-out: EC50 EV-D68 strain Fermon) of the same molecule?
Its EC50 is 0.58 ± 0.1 µM.

And the EC50 (EV-D68; EVD68 / genotype 2c, HeLa R19, read-out: EC50 EV-D68 WT)?
The EC50 was 0.83 ± 0.09 µM.

And the EC50 (HRV-A2)?
Its EC50 is 22.2 ± 0.61 µM.

And the EC50 (HRV-B14; HRVB14, HeLa R19, read-out: EC50 Exp1)?
The EC50 was 11.1 µM.

And the EC50 (HRV-B14; HRVB14, HeLa R19, read-out: EC50 Exp2)?
The EC50 was 9.9 µM.

What about the EC50 (HRV-B14; HRVB14, HeLa R19, read-out: EC50 HRV-B14) of the same molecule?
The EC50 was 10.5 ± 0.61 µM.

And the “inhibition of contemporary/clinical isolates of EV-A71, CV-A24v and EV-D68 (in words)” value [1]?
Its value is “inhibited all clinical isolates of EV-A71, CV-A24v, and EV-D68 tested”.

And the “spectrum of antiviral activity (in words)” value [1]?
The value was “inhibited all representative EVs and RVs”.

And the “SERT, Mean (Figure 8B)” value (human SERT; 1µM)?
The value was 104.08.

What about the “SERT, Mean as % (Figure 8B)” value (human SERT; 1µM) of the same molecule?
Its value is 104%.

What about the “SERT, Mean (Figure 8B)” value (human SERT; 100µM) of the same molecule?
Its value is 84.31.

And the “SERT, Mean as % (Figure 8B)” value (human SERT; 100µM)?
The value was 84%.

And the “inhibition of SERT-mediated uptake (in words)” value (human SERT; HEK293 cells expressing human SERT, 1 and 100 μM)?
Its value is “neither 12a, 19b, 19d, nor the combined compound 12b inhibited”.

What about the “DAT, Mean (Figure 8B)” value (human DAT; 1µM) of the same molecule?
The value was 94.861.

And the “DAT, Mean as % (Figure 8B)” value (human DAT; 1µM)?
Its value is 95%.

And the “DAT, Mean (Figure 8B)” value (human DAT; 100µM)?
The value was 75.9783.

And the “DAT, Mean as % (Figure 8B)” value (human DAT; 100µM)?
The value was 76%.

What about the “inhibition of DAT function (in words)” value (human DAT; HEK293 cells expressing human DAT, 1 μM or 100 μM) of the same molecule?
The value was “neither 12a, 19b, 19d, nor the combined compound 12b inhibited”.

What about the “NET, Mean (Figure 8B)” value (human NET; 1µM) of the same molecule?
The value was 124.304.

And the “NET, Mean as % (Figure 8B)” value (human NET; 1µM)?
Its value is 124%.

What about the “NET, Mean (Figure 8B)” value (human NET; 100µM) of the same molecule?
Its value is 113.384.

What about the “NET, Mean as % (Figure 8B)” value (human NET; 100µM) of the same molecule?
Its value is 113%.

And the “inhibition of NET function (in words)” value (human NET; HEK293 cells expressing human NET, 1 μM or 100 μM)?
The value was “neither 12a, 19b, 19d, nor the combined compound 12b inhibited”.

And the “cytotoxicity (in words)” value (HeLa R19 cells)?
The value was “did not show any cytotoxicity”.

And the CC50 (in vitro [2]; CC50 Average)?
The CC50 was greater than 30 µM.

What about the CC50 (in vitro [2]; CC50 HelaR19 Average) of the same molecule?
The CC50 was greater than 100 µM.

What about the CC50 (in vitro [2]; Exp 1 CC50) of the same molecule?
Its CC50 is greater than 30 µM.

And the CC50 (in vitro [2]; Exp 1 CC50 HelaR19)?
Its CC50 is greater than 100 µM.

And the CC50 (in vitro [2]; Exp2 CC50)?
Its CC50 is greater than 30 µM.

What about the CC50 (in vitro [2]; Exp 2 CC50 HelaR19) of the same molecule?
Its CC50 is greater than 100 µM.

And the CC50 (in vitro [3]; CC50)?
The CC50 was greater than 100 µM.

What about the CC50 (in vitro [3]; CC50 BGM Average) of the same molecule?
The CC50 was greater than 100 µM.

What about the CC50 (in vitro [3]; Exp 1 CC50 BGM) of the same molecule?
Its CC50 is greater than 100 µM.

What about the CC50 (in vitro [3]; Exp 2 CC50 BGM) of the same molecule?
The CC50 was greater than 100 µM.
